Test results reported in patent US12503453B2, “USP7 inhibition” (Dana-Farber Cancer Institute, Inc., priority 2018, dated 2025).

How the values were obtained:
[1] = tested on: p53 target genes in MCF7 cells; assay: Quantitative real-time PCR of MCF7 cells; assay type: cell-based; details: 1 μM, 6 or 24 hours
Method: After cell treatment under the indicated conditions, total cellular RNA was purified using a Qiagen RNEasy kit. 1 μg of RNA was then converted to cDNA using SuperScript III First-Strand Synthesis (Invitrogen). cDNA from each sample was then combined with the indicated TaqMan probe and 2× MasterMix in a 96-well Fast RT-PCR plate (Invitrogen). qPCR was performed on an Invitrogen 7500 Fast qPCR instrument and gene expression was calculated using the 2^−ΔΔct method on Graphpad Prism.

USP7 catalytic domain = USP7 catalytic domain (Homo sapiens (Human), UniProt Q93009); assay: MS labeling of purified USP7 catalytic domain (intact MS, CE-MS); assay type: binding
USP7 catalytic domain, sequence (Q93009 208-560): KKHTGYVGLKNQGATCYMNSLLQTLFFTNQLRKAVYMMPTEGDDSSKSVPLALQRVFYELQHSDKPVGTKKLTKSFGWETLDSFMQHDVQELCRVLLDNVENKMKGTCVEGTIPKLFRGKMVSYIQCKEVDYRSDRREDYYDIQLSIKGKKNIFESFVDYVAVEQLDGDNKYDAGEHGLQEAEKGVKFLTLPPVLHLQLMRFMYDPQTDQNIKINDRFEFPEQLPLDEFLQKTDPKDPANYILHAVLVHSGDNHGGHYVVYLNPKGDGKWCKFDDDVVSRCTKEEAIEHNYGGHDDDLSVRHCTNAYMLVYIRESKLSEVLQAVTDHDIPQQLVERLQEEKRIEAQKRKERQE
Method: Purified USP7 catalytic domain was diluted to 20 μM in 10 μL labeling buffer (20 mM HEPES pH 7.5, 150 mM NaCl, 1 mM TCEP) and incubated for the indicated times with 50 μM (2.5×) compound. After incubation, samples were flash frozen in liquid nitrogen and stored at −80° C. until analysis.
Intact mass analysis was performed by injecting 5 μg USP7 catalytic domain onto a self-packed reversed phase column ( 1/32″ O.D.×500 um I.D., 5 cm of POROS 10R2 resin). After desalting, protein was eluted with an HPLC gradient (0-100% B in 4 minutes, A=0.2M acetic acid in water, B=0.2 M acetic acid in acetonitrile, flow rate ˜30 μL/min) into an LTQ ion trap mass spectrometer (ThermoFisher Scientific, San Jose, CA). Mass spectra were deconvoluted using MagTran1.03b2 software. Zhang, Z. & Marshall, A. G. A universal algorithm for fast and automated charge state deconvolution of electrospray mass-to-charge ratio spectra. J. Am. Soc. Mass Spectrom. 9, 225-233 (1998).
To identify sites of covalent modification, treated protein was reduced (10 mM dithiothreitol), alkylated (22.5 mM iodoacetamide), and digested with trypsin overnight at 37° C. Peptides were desalted using SP3 (Hughes, C. S. et al. Ultrasensitive proteome analysis using paramagnetic bead technology. Mol. Syst. Biol. 10, 757-757 (2014)), dried by vacuum centrifugation, and reconstituted in 1% formic acid/50% acetonitrile with 100 mM ammonium acetate. Peptides were then analyzed by CE-MS using a ZipChip CE system and autosampler (908 Devices, Boston, MA) interfaced to a QExactive HF mass spectrometer (ThermoFisher Scientific, San Jose, CA). Peptide solution was loaded for 30 seconds, and the mass spectrometer was operated in data dependent mode and subjected the 5 most abundant ions in each MS scan (60 k resolution, 3E6 target, lock mass enabled) to MS/MS (15 k resolution, 1E5 target, 100 ms max inject time). Dynamic exclusion was enabled with a repeat count of 1 and an exclusion time of 6 seconds. […]

[2] = tested on: Ewing sarcoma cell lines, TP53 WT and mutant; assay: Cell proliferation (CellTiter-Glo), panel of Ewing sarcoma cell lines; assay type: cell-based; details: WT and TP53-KO Ewing Sarcoma cells
Method: (§1) Cells were plated in 384-well culture-treated plates and allowed to settle overnight. After drug treatment and appropriate incubation time, cell viability was assessed using the CellTiter-Glo Luminescent Cell Viability Assay (Promega). Luminescence was read on a Fluostar Omega Reader (BMG Labtech).

MCF7 cells = assay: Transcriptome profiling, 3' Digital Gene Expression RNA-seq; assay type: cell-based; details: 24 hours, low or high doses
Source text: Overall, transcripts were detected for 7000-10,000 genes (7276 genes detected across all conditions).
The same report had also identified a set of dimerization partner, Retinoblastoma-like, E2F and multi-vulval class B (DREAM) complex target genes by combining p53 repression data (generated in part with Nutlin-3A-treated MCF7 cells) with cell cycle expression and DREAM component binding.

USP7-Q351S = USP7-Q351S (Homo sapiens (Human), UniProt Q93009, Q351S); assay: Ub-AMC assay with mutant USP7-Q351S; assay type: biochemical; details: 6-hr pre-incubation
USP7-Q351S, sequence (Q93009 whole entry Q351S): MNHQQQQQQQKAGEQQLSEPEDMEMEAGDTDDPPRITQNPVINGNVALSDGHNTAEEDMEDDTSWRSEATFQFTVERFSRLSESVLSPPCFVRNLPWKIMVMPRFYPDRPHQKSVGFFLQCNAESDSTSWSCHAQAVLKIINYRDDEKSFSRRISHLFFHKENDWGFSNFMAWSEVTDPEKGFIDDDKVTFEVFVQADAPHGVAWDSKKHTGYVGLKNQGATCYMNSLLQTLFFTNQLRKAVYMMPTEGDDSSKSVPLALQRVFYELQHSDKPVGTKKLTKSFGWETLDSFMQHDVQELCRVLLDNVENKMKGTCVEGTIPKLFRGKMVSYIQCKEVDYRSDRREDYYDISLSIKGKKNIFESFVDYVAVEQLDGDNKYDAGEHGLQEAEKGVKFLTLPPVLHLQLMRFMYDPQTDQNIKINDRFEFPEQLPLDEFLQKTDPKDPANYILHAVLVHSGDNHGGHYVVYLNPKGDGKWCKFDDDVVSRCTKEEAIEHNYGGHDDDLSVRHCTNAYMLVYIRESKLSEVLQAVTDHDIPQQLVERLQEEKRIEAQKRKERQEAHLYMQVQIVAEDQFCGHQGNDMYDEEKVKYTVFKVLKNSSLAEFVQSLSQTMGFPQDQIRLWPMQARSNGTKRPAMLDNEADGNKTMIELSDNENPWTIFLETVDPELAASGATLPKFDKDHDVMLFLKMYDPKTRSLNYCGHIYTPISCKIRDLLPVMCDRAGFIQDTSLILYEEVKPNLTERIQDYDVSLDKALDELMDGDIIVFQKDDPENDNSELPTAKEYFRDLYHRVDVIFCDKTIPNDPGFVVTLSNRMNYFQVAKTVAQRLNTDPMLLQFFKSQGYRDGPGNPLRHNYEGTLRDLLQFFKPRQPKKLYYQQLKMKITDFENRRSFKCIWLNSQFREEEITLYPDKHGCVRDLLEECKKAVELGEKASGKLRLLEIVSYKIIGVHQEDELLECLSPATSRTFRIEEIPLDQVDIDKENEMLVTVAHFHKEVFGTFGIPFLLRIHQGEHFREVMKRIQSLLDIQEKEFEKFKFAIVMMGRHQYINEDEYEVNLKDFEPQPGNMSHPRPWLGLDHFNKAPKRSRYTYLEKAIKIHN
Method: (§2) Full length USP7 was tested for its activity in Ubiquitin-AMC assay in presence or absence of inhibitors. USP7 (5 nM) was pre-incubated for 6 hours at room temperature with different concentrations of inhibitors or DMSO as a control in 50 mM HEPES pH 7.5, 0.5 mM EDTA, 11 μM ovalbumin, and 5 mM DTT. Ubiquitin-AMC (Boston Biochem) was then added to a final concentration of 500 nM. The initial rate of the reaction was measured by collecting fluorescence data at one minute intervals over 30-minute period using a Clariostar fluorescence plate reader at excitation and emission wavelength of 345 and 445 nm respectively. The calculated initial rate values were plotted against inhibitor concentrations to determine IC50s. All the experimental data were plotted using Prism GraphPad. All assays for each compound were performed at least twice for each compound.

[3] = tested on: 41 purified recombinant DUBs; assay: In vitro DUB profiling, panel of 41 recombinant DUBs (Ub-Rho); assay type: biochemical; details: 1 μM, 15 minutes pre-incubation
Method: Compounds were screened using the Ubiquigent Drug Profiler SPT system. Each of 41 purified DUBs was incubated with compound for 15 minutes, then ubiquitin rhodamine 110 (Ub-Rho) was added and percent inhibition determined based on fluorescence relative to a DMSO control.

TC71 cells = assay: Cell proliferation (CellTiter-Glo), TC71; assay type: cell-based; details: TP53-mutant, 3 days
Method: as §1

USP7-F291N = USP7-F291N (Homo sapiens (Human), UniProt Q93009, F291N); assay: Ub-AMC assay with mutant USP7-F291N; assay type: biochemical; details: 6-hr pre-incubation
USP7-F291N, sequence (Q93009 whole entry F291N): as the sequence (Q93009 whole entry Q351S) above, with F291N, S351Q counted along it
Method: as §2

site of covalent modification (MS/MS) (USP7 catalytic domain): binding to the catalytic residue, C223 | labeling of USP7 catalytic domain by MS (USP7 catalytic domain; 15 minutes incubation): Quantitative labeling of USP7 | loss in potency compared to wild-type enzyme (USP7-Q351S): 100 fold | loss in potency compared to wild-type enzyme (USP7-F291N): 100 fold
Structure (SMILES): CN1CCN(CCC(=O)Nc2ccc3c(=O)n(CC4(O)CCN(C(=O)[C@@H](CCCNC(=O)c5ccc6c(Cl)c7c(nc6c5)CCCC7)Cc5ccccc5)CC4)cnc3c2)CC1 [compound 6, (S)—N-(4-benzyl-5-(4-hydroxy-4-((7-(3-(4-methylpiperazin-1-yl)propanamido)-4-oxoquinazolin-3(4H)-yl)methyl)piperidin-1-yl)-5-oxopentyl)-9-chloro-5,6,7,8-tetrahydroacridine-3-carboxamide]
transcription of p53 target genes (CDKN1A, GADD45A, BAX, DDB2) [1]: stimulating transcription of p53 target genes | TP53 dependence of cell killing [2]: highly TP53-dependent cell killing | transcriptional profile (MCF7 cells): strongly correlated transcriptional profiles | activity against other DUBs of the panel [3]: did not exhibit significant activity against any other DUBs | inhibition of USP7 enzymatic activity [3]: completely inhibited USP7 enzymatic activity | growth inhibition (TC71 cells): neither TP53-mutant A673 or TC71 was substantially inhibited
